Measurements: US20240199754A1 (VANCOUVER BIOTECH LTD., priority 2021, published 2024)
Square brackets hold non-standard residues; d marks the D form. Peptide text beside a SMILES is read from it. dPhe(4-Cl) = N[C@H](Cc1ccc(Cl)cc1)C(=O)O; d2Nal = N[C@H](Cc1ccc2ccccc2c1)C(=O)O; dCit = NC(=O)NCCC[C@@H](N)C(=O)O; d3Pal = N[C@H](Cc1cccnc1)C(=O)O

Tests used:
[1] = cited from earlier work
[2] = system: N1-29 peptide of cat GnRH receptor; conditions: cited from earlier work
pituitary GnRH receptor [3] = assay: Large scale proof of concept experiment, female rabbits (estradiol, LH); type: in vivo, rabbit
Protocol: (§1) With preliminary observations in single rabbit data, large scale rabbit experiments (n≥30) including negative controls were conducted with identical protocols. […] The data generated in each experimental group were analyzed statistically. The means and standard deviations of hormone levels from rabbits in each experimental group are presented in FIGS. 6-9 and corresponding selected statistical analyses and separate comparisons with those of the negative controls are presented in Table 1 to Table 4.
In the case of female rabbits, the serum concentrations of reproductive hormones including LH and estradiol (E2) of ten female rabbits were monitored and measured after a single subcutaneous injection with 1 mg/kg of GHR-106 (low dosage, n=3) or 3 mg/kg of GHR-106 (high dosage, n=3) on day 1, or after no injection (negative control, n=4). Serum E2 levels were determined starting on day 1 and ending on day 17, and serum LH levels were determined starting on day 1 and ending on day 13. The results of the estradiol (E2) profile are found in FIG. 8. The results of the LH profile are found in FIG. 9. Selected statistical analyses and separate comparisons with those of the negative controls for FIG. 8 and FIG. 9 are found in Table 3 and Table 4, respectively.
Target sequence in this assay (as listed by the source): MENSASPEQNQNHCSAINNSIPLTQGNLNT

pituitary GnRH receptor [4] = assay: Proof-of-concept rabbit experiments overall (single and multi-rabbit); type: in vivo; conditions: single injection, 1 mg/kg or 3 mg/kg
Protocol: as §1

[5] = system: N1-29 synthetic oligopeptide of GnRH receptor from rabbit; assay: Comparative binding ELISA on well-coated N1-29 oligopeptide (rabbit); conditions: vs unrelated RP215 negative control
N1-29 synthetic oligopeptide of GnRH receptor from rabbit, sequence (as listed by the source): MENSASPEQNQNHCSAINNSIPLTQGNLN
Protocol: (§2) Therefore, comparative binding ELISA studies were performed to estimate the relative binding affinity between GHR-106 and microwell-coated N1-29 oligopeptides derived from human, dog and rabbit, respectively. The results of such binding studies are presented and compared in FIG. 2.
(§3) Unrelated RP215 monoclonal antibody was used as the negative control for any blank subtractions. Goat anti-human IgG labeled with alkaline phosphatase was used as the second antibody for signal detection. P-nitrophenyl phosphate was used as the substrate and monitored at 405 nm and double log plot presented.

[6] = molecular target: T1, N1-29 synthetic oligopeptide of GnRH receptor from humans (Homo sapiens, UniProt P30968); assay: Comparative binding ELISA on well-coated N1-29 oligopeptide (human); conditions: vs unrelated RP215 negative control
T1 sequence (P30968 1-30): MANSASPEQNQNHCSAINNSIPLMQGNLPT
Protocol: as §2, §3

pituitary GnRH receptor [7] = assay: Serum LH and testosterone after single injection, single adult male rabbit; type: in vivo
Protocol: In the case of male rabbits, serum concentrations of reproductive hormones including luteinizing hormone (LH) and testosterone were monitored regularly following a single subcutaneous injection with 3 mg/kg of hGHR-106.
The serum LH and testosterone concentrations were determined, respectively, by EIA kits and plotted as a function of time during the day 1 to 30 time period.

[8] = system: OC-3-VGH ovarian cancer cells; assay: Quantitative RT-PCR gene regulation study; type: cell-based, human; conditions: quantitative RT-PCR after incubation with cancer cells
[9] = system: N1-29 peptide of monkey GnRH receptor; conditions: cited from earlier work
N1-29 peptide of monkey GnRH receptor, sequence (as listed by the source): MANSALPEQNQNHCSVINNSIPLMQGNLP

human cancer cells = conditions: 24 to 72 hours co-incubation with 1-10 μg/ml; cited from earlier work
pituitary GnRH receptor [10] = assay: Large scale proof of concept experiment, male rabbits (testosterone, LH); type: in vivo, rabbit
Protocol: as §1
In the case of male rabbits, the serum concentrations of reproductive hormones including LH and testosterone of ten male rabbits were monitored and measured after a single subcutaneous injection with 1 mg/kg of GHR-106 (low dosage, n=3) or 3 mg/kg of GHR-106 (high dosage, n=3) on day 1, or after no injection (negative control, n=4). Serum testosterone levels were determined and the averages (with standard deviations) were determined from day 1 to day 17, and serum LH levels were determined starting on day 1 and ending on day 13 (with standard deviations) The results of the testosterone profile are found in FIG. 6. The results of the LH profile are found in FIG. 7. Selected statistical analyses and separate comparisons with those of the negative controls for FIG. 6 and FIG. 7 are found in Table 1 and Table 2, respectively.

[11] = system: N1-29 peptide of rabbit GnRH receptor; conditions: cited from earlier work
[12] = system: N1-29 synthetic oligopeptide of GnRH receptor from dog; assay: Comparative binding ELISA on well-coated N1-29 oligopeptide (dog); conditions: vs unrelated RP215 negative control
N1-29 synthetic oligopeptide of GnRH receptor from dog, sequence (as listed by the source): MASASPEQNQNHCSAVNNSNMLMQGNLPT
Protocol: as §2, §3

pituitary GnRH receptor [13] = assay: Serum LH and estradiol after single injection, female rabbit; type: in vivo
Protocol: The hormonal profiles of serum luteinizing hormone (LH) and Estradiol (E2) in female rabbits were monitored upon a single injection with a 3 mg/kg dose of hGHR-106.

GnRHR = molecular target: T2, GnRHR (Homo sapiens, UniProt P30968); assay: Detection of GnRHR overexpression in a reference cell line; type: cell-based; conditions: compared with four commercially available antibodies
T2 sequence (P30968 1-328): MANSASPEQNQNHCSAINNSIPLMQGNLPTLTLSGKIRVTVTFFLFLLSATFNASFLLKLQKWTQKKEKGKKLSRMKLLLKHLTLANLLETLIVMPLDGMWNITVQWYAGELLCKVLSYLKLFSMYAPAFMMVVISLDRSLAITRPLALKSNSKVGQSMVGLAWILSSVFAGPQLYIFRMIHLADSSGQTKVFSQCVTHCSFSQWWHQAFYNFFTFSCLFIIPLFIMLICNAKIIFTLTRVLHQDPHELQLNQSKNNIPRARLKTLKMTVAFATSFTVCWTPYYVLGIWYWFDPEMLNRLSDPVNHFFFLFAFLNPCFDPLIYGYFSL
Protocol: In particular, the ability of GHR-106 to detect overexpression of GnRHR in a reference cell line is tested and compared with four different commercially available antibodies.

[14] = system: N1-29 peptide of dog GnRH receptor; conditions: cited from earlier work
[15] = molecular target: T3, N1-29 synthetic oligopeptide of human GnRH receptor (human); assay: ELISA on well-coated N1-29 peptide, goat anti-human IgG-alkaline phosphatase, OD 405 nm
T3 construct: Synthetic peptide coated on microwells; also called human N1-29 peptide; N1-29 oligopeptide
T3 peptide: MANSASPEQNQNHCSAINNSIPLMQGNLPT

[16] = single injection day 1, low (1 mg/kg) or high (3 mg/kg) dosage, vs negative control
[17] = male rabbit, single subcutaneous injection of 1 mg/kg or 3 mg/kg
[18] = male rabbits, single injection day 1, low (1 mg/kg) or high (3 mg/kg) dosage, vs negative control

N1-29 peptide of cat GnRH receptor, sequence (as listed by the source): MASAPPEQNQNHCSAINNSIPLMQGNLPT

## CC(=O)N[C@H](Cc1ccc2ccccc2c1)C(=O)N[C@H](Cc1ccc(Cl)cc1)C(=O)N[C@H](Cc1cccnc1)C(=O)N[C@@H](CO)C(=O)N[C@@H](Cc1ccc(O)cc1)C(=O)N[C@H](CCCNC(N)=O)C(=O)N[C@@H](CC(C)C)C(=O)N[C@@H](CCCNC(=N)N)C(=O)N1CCC[C@H]1C(=O)N[C@H](C)C(N)=O [Cetrorelix, reference compound] (Ac-[d2Nal][dPhe(4-Cl)][d3Pal]SY[dCit]LRP[dA]-NH2)
[1]
  circulation half life: 10 to 63 h

## GHR-106: monoclonal antibody against N1-29 oligopeptide of human GnRH receptor; examples use humanized IgG4 form, heavy chain SEQ ID NO:7, light chain SEQ ID NO:8
[2]
  cross-reactivity with N1-29 peptide: cross-reacts
Pituitary GnRH receptor [3]; Day 3, 1 mg/kg
  t test, LH profile, neg. ctrl to 1 mg/kg: 3.93
  t test, estradiol (E2) profile, neg. ctrl to 1 mg/kg: 1.179
Pituitary GnRH receptor [3]; Day 3, 3 mg/kg
  t test, LH profile, neg. ctrl to 3 mg/kg: 6.348
  t test, estradiol (E2) profile, neg. ctrl to 3 mg/kg: 1.125
Pituitary GnRH receptor [3]; Day 5, 1 mg/kg
  t test, LH profile, neg. ctrl to 1 mg/kg: 6.556
  t test, estradiol (E2) profile, neg. ctrl to 1 mg/kg: 2.893
Pituitary GnRH receptor [3]; Day 5, 3 mg/kg
  t test, LH profile, neg. ctrl to 3 mg/kg: 5.114
  t test, estradiol (E2) profile, neg. ctrl to 3 mg/kg: 2.039
Pituitary GnRH receptor [3]; Day 7, 1 mg/kg
  t test, LH profile, neg. ctrl to 1 mg/kg: 6.018
  t test, estradiol (E2) profile, neg. ctrl to 1 mg/kg: 2.807
Pituitary GnRH receptor [3]; Day 7, 3 mg/kg
  t test, LH profile, neg. ctrl to 3 mg/kg: 4.126
  t test, estradiol (E2) profile, neg. ctrl to 3 mg/kg: 2.45
Pituitary GnRH receptor [3]; Day 9, 1 mg/kg
  t test, LH profile, neg. ctrl to 1 mg/kg: 1.1
  t test, estradiol (E2) profile, neg. ctrl to 1 mg/kg: 3.048
Pituitary GnRH receptor [3]; Day 9, 3 mg/kg
  t test, LH profile, neg. ctrl to 3 mg/kg: 4.126
  t test, estradiol (E2) profile, neg. ctrl to 3 mg/kg: 5.087
Pituitary GnRH receptor [3]; [16]
  serum LH levels: reversibly suppressed
  serum estradiol (E2) levels: reversibly suppressed
Pituitary GnRH receptor [4]
  time until hormone levels return to normal ranges: 1-3 weeks
[5]
  binding affinity to N1-29 peptide (ELISA, ΔOD 405 nm): comparable to one another
[6]
  binding affinity to N1-29 peptide (ELISA, ΔOD 405 nm): comparable to one another
Pituitary GnRH receptor [7]; 3 mg/kg s.c.
  duration of low LH levels: at least one to two
Pituitary GnRH receptor [7]; 3 mg/kg s.c., after 24-48 hours, from 3.5 mlU/ml
  serum LH: < 0.5 mlU/ml
Pituitary GnRH receptor [7]; 3 mg/kg s.c., end of the third week
  serum LH, stable normal range reached: 2.9-5.0 mlU/ml
Pituitary GnRH receptor [7]; 3 mg/kg single injection, first two weeks
  decrease of serum testosterone concentration: more than 80%
Pituitary GnRH receptor [7]; 3 mg/kg single injection, first two weeks, from 0.95 ng/ml
  serum testosterone concentration: ≤ 0.1 ng/mL
Pituitary GnRH receptor [7]; 3 mg/kg, day 30
  LH and testosterone hormone levels: within the normal range
[8]
  gene expression changes of ten regulatory genes, compared between GHR-106 and Antide: strong similarity
[9]
  cross-reactivity with N1-29 peptide: cross-reacts
[1]; in vivo
  half-life: 120 to 504 h
Human cancer cells
  degrees of induced apoptosis: comparable to those of the decapeptide GnRH antagonist, Antide
Pituitary GnRH receptor [10]; [17]
  decrease of serum LH concentration, of the normal level: 80 to 90%
  decrease of serum testosterone concentration, of the normal level: 80 to 90%
  period of decreased serum LH and testosterone: seven to ten
  time until reproductive hormones returned to normal levels after the initial injection: approximately two
Pituitary GnRH receptor [10]; male rabbits, Day 3, 1 mg/kg
  t test, LH profile, neg. ctrl to 1 mg/kg: 3.579
  t test, testosterone profile, neg. ctrl to 1 mg/kg: 2.966
Pituitary GnRH receptor [10]; male rabbits, Day 3, 3 mg/kg
  t test, LH profile, neg. ctrl to 3 mg/kg: 1.474
  t test, testosterone profile, neg. ctrl to 3 mg/kg: 4.2
Pituitary GnRH receptor [10]; male rabbits, Day 5, 1 mg/kg
  t test, LH profile, neg. ctrl to 1 mg/kg: 4.698
  t test, testosterone profile, neg. ctrl to 1 mg/kg: 3.353
Pituitary GnRH receptor [10]; male rabbits, Day 5, 3 mg/kg
  t test, LH profile, neg. ctrl to 3 mg/kg: 3.596
  t test, testosterone profile, neg. ctrl to 3 mg/kg: 3.851
Pituitary GnRH receptor [10]; male rabbits, Day 7, 1 mg/kg
  t test, LH profile, neg. ctrl to 1 mg/kg: 4.126
  t test, testosterone profile, neg. ctrl to 1 mg/kg: 1.086
Pituitary GnRH receptor [10]; male rabbits, Day 7, 3 mg/kg
  t test, LH profile, neg. ctrl to 3 mg/kg: 3.62
  t test, testosterone profile, neg. ctrl to 3 mg/kg: 7.396
Pituitary GnRH receptor [10]; male rabbits, Day 9, 1 mg/kg
  t test, LH profile, neg. ctrl to 1 mg/kg: 2.936
  t test, testosterone profile, neg. ctrl to 1 mg/kg: 0.3439
Pituitary GnRH receptor [10]; male rabbits, Day 9, 3 mg/kg
  t test, LH profile, neg. ctrl to 3 mg/kg: 3.56
  t test, testosterone profile, neg. ctrl to 3 mg/kg: 0.8405
Pituitary GnRH receptor [10]; [18]
  serum LH levels: reversibly suppressed
  serum testosterone levels: reversibly suppressed
[11]
  cross-reactivity with N1-29 peptide: cross-reacts
[12]
  binding affinity to N1-29 peptide (ELISA, ΔOD 405 nm): comparable to one another
Pituitary GnRH receptor [13]; 3 mg/kg single injection, first few days, from 3 mlU/ml
  serum LH: ≤ 1 mlU/ml
Pituitary GnRH receptor [13]; 3 mg/kg single injection, until day 10, from 50 pg/ml
  serum E2 concentration: ≤ 20 pg/mL
Pituitary GnRH receptor [13]; 3 mg/kg, after day 18 and 20
  serum E2 concentration reached on recovery: 120 pg/mL
  serum LH concentration reached on recovery: 6 mIU/ml
GnRHR
  ability to detect overexpression of GnRHR: able to detect overexpression of GnRHR
[14]
  cross-reactivity with N1-29 peptide: cross-reacts

B1: GHR-106(hIgG4), humanized IgG4 GHR-106 monoclonal antibody (antibody, V domains shown)
VH: QVQLQESGPGLVKPSETLSLTCTVSGFSLSRYSVHWIRQPPGKGLEWIGMIWGGGSTDYNPSLKSRVTISKDNSKSQVFLKMSSVTAADTAMYYCARGNDGYYSFAYWGQGTLVTVSS
VL: DIVMTQSPDSLAVSLGERATINCKSSQSLLNSRTRKNYLAWYQQKPGQSPKLLIYWASTRESGVPDRFSGSGSGTDFTLTISSLQAEDVAVYYCKQSYNLYTFGQGTKLEIKR
notes: Humanized IgG4
[15]
  binding result: binds
